Assay results from patent US9145425B2, “Cephem compound having catechol group” (SHIONOGI & CO., LTD., priority 2010, dated 2015).
In brackets after ≈: the same amount, converted by molar mass. Read-outs that look alike come from different tables or passages of the source.

Legend:
Type in all cases: cell-based
[1] = system: Klebsiella pneumoniae ATCC 700603; test: Minimum Inhibitory Concentration (MIC), agar plate incubation, Japan Society for Chemotherapy standard method
Method: (§1) The antimicrobial activity in vitro of the present compound (I) was determined.
(§2) Measurement of Minimum Inhibitory Concentration (MIC, μg/ml) was conducted according to the standard method of the Japan Society for Chemotherapy and the amount of bacteria for inoculation was 1000 cfu/spot, and sensitive disc medium was used as the test medium, and conducted using agar plate incubation.
(§3) In the tables, the unit of the values of inhibitory activity is μg/ml.

[2] = system: Pseudomonas aeruginosa SR24; test: as above; settings: Pseudomonas aeruginosa SR24, no enzyme, ceftazidime sensitive strain, 1000 cfu/spot, sensitive disc medium; for MIC: read-out: Minimum Inhibitory Concentration (MIC)
Method: as §1, §2, §3

[3] = system: Acinetobacter baumannii SR24396; test: as above
Method: as §1, §2, §3

[4] = system: Pseudomonas aeruginosa SR27060; test: as above
Method: as §1, §2, §3

[5] = system: Stenotrophomonas maltophilia SR21970; test: Minimum Inhibitory Concentration (MIC), agar plate incubation, CLSI method
Method: as §1
Measurement of Minimum Inhibitory Concentration (MIC, μg/ml) was conducted according to the CLSI (Clinical and Laboratory Standards Institute) and the amount of bacteria for inoculation was 10000 cfu/spot, and Mueller-Hinton agar medium was used as the test medium, and conducted using agar plate incubation.
as §3

[6] = ATCC700603, Klebsiella pneumoniae ATCC 700603, SHV-18, ESBL producer strain, 1000 cfu/spot, sensitive disc medium, read-out: Minimum Inhibitory Concentration (MIC)
[7] = Acinetobacter baumannii SR24396, no enzyme, 1000 cfu/spot, sensitive disc medium, read-out: Minimum Inhibitory Concentration (MIC)
[8] = Pseudomonas aeruginosa SR27060, IMP-1, MBL producer strain (carbapenem resistant strain), 1000 cfu/spot, sensitive disc medium, read-out: Minimum Inhibitory Concentration (MIC)
[9] = Stenotrophomonas maltophilia SR21970, L-1, MBL producer strain (carbapenem resistant strain), 10000 cfu/spot, Mueller-Hinton agar medium, read-out: Minimum Inhibitory Concentration (MIC)
[10] = Klebsiella pneumoniae ATCC 700603, SHV-18, ESBL producer strain, 1000 cfu/spot, sensitive disc medium
[11] = Acinetobacter baumannii SR24396, no enzyme, 1000 cfu/spot, sensitive disc medium
[12] = Pseudomonas aeruginosa SR27060, IMP-1, MBL producer strain (carbapenem resistant strain), 1000 cfu/spot, sensitive disc medium
[13] = Stenotrophomonas maltophilia SR21970, L-1, MBL producer strain (carbapenem resistant strain), 10000 cfu/spot, Mueller-Hinton agar medium
[14] = Klebsiella pneumoniae, ATCC700603, read-out: Minimum Inhibitory Concentration (MIC)
[15] = Acinetobacter baumannii, SR24396, read-out: Minimum Inhibitory Concentration (MIC)
[16] = Pseudomonas aeruginosa, SR27060, read-out: Minimum Inhibitory Concentration (MIC)
[17] = Stenotrophomonas maltophilia, SR21970, read-out: Minimum Inhibitory Concentration (MIC)

| Compound | Minimum Inhibitory Concentration (MIC) [1, 10] | Minimum Inhibitory Concentration (MIC) [2] | Minimum Inhibitory Concentration (MIC) [3, 11] | Minimum Inhibitory Concentration (MIC) [4, 12] | Minimum Inhibitory Concentration (MIC) [5, 13] | other results |
| --- | --- | --- | --- | --- | --- | --- |
| CC(C)(O/N=C(\C(=O)N[C@@H]1C(=O)N2C(C(=O)[O-])=C(C[N+]3(Cc4nnc(-c5ccc(O)c(O)c5Cl)o4)CCCC3)CS[C@H]12)c1csc(N)n1)C(=O)[O-].[Na+] [Compound I-1] |  |  |  |  |  | MIC [1, 6]: 0.25 µg/mL; MIC [2]: 0.063 µg/mL; MIC [3, 7]: 0.25 µg/mL; MIC [4, 8]: 0.25 µg/mL; MIC [5, 9]: 1 µg/mL |
| CC(C)(O/N=C(\C(=O)N[C@@H]1C(=O)N2C(C(=O)[O-])=C(C[N+]34CCC(CC3)N(C(=O)c3ccc(O)c(O)c3Cl)CC4)CS[C@H]12)c1csc(N)n1)C(=O)[O-].[Na+] [Compound I-5] |  |  |  |  |  | MIC [1, 6]: 0.25 µg/mL; MIC [2]: 0.063 µg/mL; MIC [3, 7]: 0.125 µg/mL; MIC [4, 8]: 0.5 µg/mL; MIC [5, 9]: 0.5 µg/mL |
| CC(C)(O/N=C(\C(=O)N[C@@H]1C(=O)N2C(C(=O)[O-])=C(C[N@+]34CC[C@H](C3)N(C(=O)c3ccc(O)c(O)c3Cl)CC4)CS[C@H]12)c1csc(N)n1)C(=O)[O-].[Na+] [Compound I-6] |  |  |  |  |  | MIC [1, 6]: 1 µg/mL; MIC [2]: 0.063 µg/mL; MIC [3, 7]: 0.125 µg/mL; MIC [4, 8]: 0.5 µg/mL; MIC [5, 9]: 1 µg/mL |
| Nc1nc(/C(=N/O[C@@H](CC(=O)[O-])C(=O)[O-])C(=O)N[C@@H]2C(=O)N3C(C(=O)[O-])=C(C[N+]45CCC(CC4)N(C(=O)c4ccc(O)c(O)c4Cl)CC5)CS[C@H]23)cs1.[Na+].[Na+] [Compound I-9] |  |  |  |  |  | MIC [1, 6]: 0.125 µg/mL; MIC [2]: 0.063 µg/mL; MIC [3, 7]: 0.125 µg/mL; MIC [4, 8]: 0.25 µg/mL; MIC [5, 9]: 0.5 µg/mL |
| Nc1nc(C(=NOC(CC(=O)[O-])C(=O)[O-])C(=O)NC2C(=O)N3C(C(=O)[O-])=C(C[N+]45CCCC4CN(C(=O)c4ccc(O)c(O)c4Cl)CC5)CSC23)cs1.[Na+].[Na+] (centres unmarked) [Compound I-14] | 0.5 µg/mL | 0.125 µg/mL | 0.125 µg/mL | 0.25 µg/mL | 1 µg/mL |  |
| CC(C)(ON=C(C(=O)NC1C(=O)N2C(C(=O)[O-])=C(C[N+]34CCCC3CN(C(=O)c3ccc(O)c(O)c3Cl)CC4)CSC12)c1csc(N)n1)C(=O)[O-].[Na+] (centres unmarked) [Compound I-15] | 0.25 µg/mL | 0.063 µg/mL | 0.25 µg/mL | 0.5 µg/mL | 1 µg/mL |  |
| CC(ON=C(C(=O)NC1C(=O)N2C(C(=O)[O-])=C(C[N+]34CCCC3CN(C(=O)c3ccc(O)c(O)c3Cl)CC4)CSC12)c1csc(N)n1)C(=O)[O-].[Na+] (centres unmarked) [Compound I-18] | 0.5 µg/mL | 0.063 µg/mL | 0.125 µg/mL | 1 µg/mL | 2 µg/mL |  |
| CC(C)(O/N=C(\C(=O)N[C@@H]1C(=O)N2C(C(=O)[O-])=C(C[N+]34CCC(CC3)[C@H](NC(=O)c3ccc(O)c(O)c3Cl)C4)CS[C@H]12)c1csc(N)n1)C(=O)O [Compound I-19] |  |  |  |  |  | MIC [1, 6]: 0.5 µg/mL (≈ 0.654 µM); MIC [2]: 0.125 µg/mL (≈ 0.164 µM); MIC [3, 7]: 0.125 µg/mL (≈ 0.164 µM); MIC [4, 8]: 0.125 µg/mL (≈ 0.164 µM); MIC [5, 9]: 0.5 µg/mL (≈ 0.654 µM) |
| CC(C)(O/N=C(\C(=O)N[C@@H]1C(=O)N2C(C(=O)[O-])=C(C[N+](C)(C)C3CCN(C(=O)c4ccc(O)c(O)c4Cl)CC3)CS[C@H]12)c1csc(N)n1)C(=O)[O-].[Na+] [Compound I-21] | 0.5 µg/mL | 0.125 µg/mL | 0.125 µg/mL | 1 µg/mL | 1 µg/mL |  |
| CC(C)(O/N=C(\C(=O)N[C@@H]1C(=O)N2C(C(=O)O)=C(C[N+]3(C)[C@@H]4CC[C@H]3C[C@@H](NC(=O)c3cc(O)c(O)cc3Cl)C4)CS[C@H]12)c1csc(N)n1)C(=O)[O-] (some centres unmarked) [II-55] |  |  |  |  |  | MIC [1, 14]: 0.25 µg/mL (≈ 0.321 µM); MIC [3, 15]: 0.25 µg/mL (≈ 0.321 µM); MIC [4, 16]: 0.5 µg/mL (≈ 0.642 µM); MIC [5, 17]: 0.5 µg/mL (≈ 0.642 µM) |
| C[N+]1(CC2=C(C(=O)[O-])N3C(=O)C(NC(=O)C(=NOC(CC(=O)O)C(=O)[O-])c4csc(N)n4)C3SC2)C2CCC1CC(NC(=O)c1cc(O)c(O)cc1Cl)C2.[Na+] (centres unmarked) [II-56] | 0.25 µg/mL |  | 0.25 µg/mL | 0.5 µg/mL | 0.5 µg/mL |  |
| CC(C)(O/N=C(\C(=O)N[C@@H]1C(=O)N2C(C(=O)O)=C(C[N@+]3(C)[C@@H]4CC[C@H]3C[C@@H](NC(=O)c3cc(F)c(O)c(O)c3F)C4)CS[C@H]12)c1csc(N)n1)C(=O)[O-] [III-9] |  |  |  |  |  | MIC [1, 14]: 0.125 µg/mL (≈ 0.16 µM); MIC [3, 15]: 0.125 µg/mL (≈ 0.16 µM); MIC [4, 16]: 0.25 µg/mL (≈ 0.321 µM); MIC [5, 17]: 0.5 µg/mL (≈ 0.641 µM) |
| C[N+]1(CC2=C(C(=O)[O-])N3C(=O)C(NC(=O)C(=NOC(CC(=O)O)C(=O)[O-])c4csc(N)n4)C3SC2)C2CCC1CC(NC(=O)c1cc(F)c(O)c(O)c1F)C2.[Na+] (centres unmarked) [III-10] | 0.125 µg/mL |  | 0.125 µg/mL | 0.25 µg/mL | 0.5 µg/mL |  |

More lines, main results first:

| Minimum Inhibitory Concentration (MIC) [1, 10] | Minimum Inhibitory Concentration (MIC) [2] | Minimum Inhibitory Concentration (MIC) [3, 11] | Minimum Inhibitory Concentration (MIC) [4, 12] | Minimum Inhibitory Concentration (MIC) [5, 13] | Compound | other results |
| --- | --- | --- | --- | --- | --- | --- |
| 0.5 µg/mL | 0.063 µg/mL | 0.125 µg/mL | 0.5 µg/mL | 1 µg/mL | CC(ON=C(C(=O)NC1C(=O)N2C(C(=O)[O-])=C(C[N+]34CCC(CC3)N(C(=O)c3ccc(O)c(O)c3Cl)CC4)CSC12)c1csc(N)n1)C(=O)[O-].[Na+] (centres unmarked) [Compound I-23] |  |
| 1 µg/mL | 0.063 µg/mL | 0.25 µg/mL | 0.5 µg/mL | 1 µg/mL | CC(C)(ON=C(C(=O)NC1C(=O)N2C(C(=O)[O-])=C(C[N+]34CCCC3CN(C(=O)c3ccc(O)c(O)c3Cl)CC4)CSC12)c1csc(N)n1)C(=O)[O-].[Na+] (centres unmarked) [Compound I-31] |  |
| 0.5 µg/mL | 0.063 µg/mL | 0.125 µg/mL | 0.5 µg/mL | 0.5 µg/mL | CC(C)(O/N=C(\C(=O)N[C@@H]1C(=O)N2C(C(=O)[O-])=C(C[N+]34CCC(CC3)N(C(=O)c3ccc(O)c(O)c3Cl)CC4)CS[C@H]12)c1nsc(N)n1)C(=O)[O-].[Na+] [Compound I-34] |  |
| 1 µg/mL | 0.063 µg/mL | 0.5 µg/mL | 0.25 µg/mL | 1 µg/mL | CC(ON=C(C(=O)NC1C(=O)N2C(C(=O)[O-])=C(C[N+]34CCC(CNC(=O)c5ccc(O)c(O)c5Cl)(CC3)CC4)CSC12)c1csc(N)n1)C(=O)[O-].[Na+] (centres unmarked) [Compound I-35] |  |
| 0.5 µg/mL | 0.125 µg/mL | 0.5 µg/mL | 0.25 µg/mL | 1 µg/mL | CC(ON=C(C(=O)NC1C(=O)N2C(C(=O)[O-])=C(C[N+]3(CCNC(=O)c4ccc(O)c(O)c4Cl)CCCC3)CSC12)c1csc(N)n1)C(=O)[O-].[Na+] (centres unmarked) [Compound I-36] |  |
| 0.5 µg/mL | 0.125 µg/mL | 0.125 µg/mL | 1 µg/mL | 1 µg/mL | CCC(ON=C(C(=O)NC1C(=O)N2C(C(=O)[O-])=C(C[N+]34CCCC3CN(C(=O)c3ccc(O)c(O)c3Cl)CC4)CSC12)c1csc(N)n1)C(=O)[O-].[Na+] (centres unmarked) [Compound I-37] |  |
| 1 µg/mL | 0.125 µg/mL | 0.25 µg/mL | 2 µg/mL | 1 µg/mL | NC(=O)CC(ON=C(C(=O)NC1C(=O)N2C(C(=O)[O-])=C(C[N+]34CCCC3CN(C(=O)c3ccc(O)c(O)c3Cl)CC4)CSC12)c1csc(N)n1)C(=O)[O-].[Na+] (centres unmarked) [Compound I-38] |  |
| 0.5 µg/mL | 0.125 µg/mL | 0.125 µg/mL | 0.5 µg/mL | 1 µg/mL | C[N+]1(CC2=C(C(=O)[O-])N3C(=O)C(NC(=O)C(=NOC(CC(=O)[O-])C(=O)[O-])c4csc(N)n4)C3SC2)CC2CN(C(=O)c3ccc(O)c(O)c3Cl)CC2C1.[Na+].[Na+] (centres unmarked) [Compound I-41] |  |
